By Ki is commonly meant the dissociation constant of the complex between target and ligand, obtained from inhibition or displacement. Low readings indicate a stronger hold on the target, high ones a looser hold on the target.

H3 receptor, sequence (Q9QYN8 1-397 isoform Q9QYN8-3): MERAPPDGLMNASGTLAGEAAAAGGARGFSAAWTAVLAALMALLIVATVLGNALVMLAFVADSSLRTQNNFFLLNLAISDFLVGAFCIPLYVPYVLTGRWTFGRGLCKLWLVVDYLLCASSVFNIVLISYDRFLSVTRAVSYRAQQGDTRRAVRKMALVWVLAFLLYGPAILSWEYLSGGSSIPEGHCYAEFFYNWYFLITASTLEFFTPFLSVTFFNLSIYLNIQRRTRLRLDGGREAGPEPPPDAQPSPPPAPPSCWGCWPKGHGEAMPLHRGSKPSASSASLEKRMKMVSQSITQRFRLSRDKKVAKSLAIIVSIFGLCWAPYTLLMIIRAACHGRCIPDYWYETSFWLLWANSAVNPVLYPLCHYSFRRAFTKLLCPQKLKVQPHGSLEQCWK

The target in this test is H3 receptor (Rattus norvegicus, UniProt Q9QYN8). As to the kind of experiment: H3 receptor binding, (3H)-N-α-methylhistamine displacement in rat cortical membranes. To be noted: male Sprague-Dawley rat brain cortical membranes, 30 minutes at 25° C., Cheng-Prusoff, geometric mean values of 2-10 separate experiments. As for the experimental part:
Briefly, male Sprague-Dawley rat brain cortices were homogenized (1 g tissue/10 mL buffer) in 50 mM Tris-HCl/5 mM EDTA containing protease inhibitor cocktail (Calbiochem) using a polytron set at 20,500 rpm. Homogenates were centrifuged for 20 minutes at 40,000×g. The supernatant was decanted, and pellets were weighed. The pellet was resuspended by polytron homogenization in 40 mL 50 mM Tris-HCl/5 mM EDTA with protease inhibitors and centrifuged for 20 minutes at 40,000×g. […] Test compounds were added to the incubation mixtures prior to initiating the incubation assay by addition of the membranes. Thioperamide (3 μM) was used to determine nonspecific binding. Binding incubations were conducted for 30 minutes at 25° C. and terminated by addition of 2 mL of ice cold 50 mM Tris-HCl (H 7.7) and filtration through 0.3% polyethylenimine-soaked Unifilter plates (Packard). These filters were washed 4 additional times with 2 mL of ice-cold 50 mM Tris-HCl and dried for 1 hour. Radioactivity was determined using liquid scintillation counting techniques. Results were analyzed by Hill transformation and Ki values were determined using the Cheng-Prusoff equation.
`C[C@@H](NC(=O)c1cccs1)C(=O)N1CCN(CCCOc2ccc(-c3noc(CCC(=O)N4CCCC4)n3)c(F)c2)CC1` [Example 190, N-((1R)-2-{4-[3-(3-fluoro-4-{5-[3-oxo-3-(1-pyrrolidinyl)propyl]-1,2,4-oxadiazol-3-yl}phenoxy)propyl]-1-piperazinyl}-1-methyl-2-oxoethyl)-2-thiophenecarboxamide] came in with a Ki of 7.69 nM.

Compound `C[C@H](N)C(=O)N1CCCN(CCCOc2ccc(C(=O)C3CC3)cc2)CC1` [Example 117, (4-(3-(4-((2S)-2-aminopropanoyl)-1,4-diazepan-1-yl)propoxy)phenyl)(cyclopropyl)methanone] gave a Ki of 1.07 nM. Next, `CC(C)N[C@H](C)C(=O)N1CCN(CCCOc2ccc(C(=O)C3CC3)cc2)CC1` [Example 139, Cyclopropyl(4-(3-(4-((2R)-2-(isopropylamino)propanoyl)-1-piperazinyl)propoxy)phenyl)methanone]: 7.29 nM; `C[C@@H](NC(=O)c1ccc(Oc2ccccc2)cc1)C(=O)N1CCN(CCCOc2ccc(C(=O)C3CC3)cc2)CC1` [Example 195]: 1.37 nM. On to `Cc1ccc(C(=O)N[C@H](C)C(=O)N2CCN(CCCOc3ccc(-c4noc(CC5CCCC5)n4)c(F)c3)CC2)cc1` [Example 173, N-{(1R)-2-[4-(3-{4-[5-(cyclopentylmethyl)-1,2,4-oxadiazol-3-yl]-3-fluorophenoxy}propyl)-1-piperazinyl]-1-methyl-2-oxoethyl}-4-methylbenzamide], for which affinity was put at a Ki of 1.56 nM. The Ki values of the last two compounds are within 1.5-fold of each other. Take `C[C@@H](NC(=O)c1ccco1)C(=O)N1CCCN(CCCOc2ccc(-c3noc(-c4nccs4)n3)c(F)c2)CC1` [Example 149, N-{(1R)-2-[4-(3-{3-fluoro-4-[5-(1,3-thiazol-2-yl)-1,2,4-oxadiazol-3-yl]phenoxy}propyl)-1,4-diazepan-1-yl]-1-methyl-2-oxoethyl}-2-furamide]: the Ki was found to be 6.24 nM. For the compound `C[C@@H](NC(=O)c1ccc2c(c1)OCO2)C(=O)N1CCN(CCCOc2ccc(-c3noc(CC4CCCC4)n3)c(F)c2)CC1` [Example 183], the Ki stood at 2.72 nM. Regarding `C[C@@H](NC(=O)c1ccco1)C(=O)N1CCCN(CCCOc2ccc(-c3noc(CCc4ccccc4)n3)c(F)c2)CC1` [Example 152, N-{(1R)-2-[4-(3-{3-fluoro-4-[5-(2-phenylethyl)-1,2,4-oxadiazol-3-yl]phenoxy}propyl)-1,4-diazepan-1-yl]-1-methyl-2-oxoethyl}-2-furamide], the affinity, expressed as Ki, was 1.01 nM. In turn, `C[C@@H](NC(=O)c1ccccc1Cl)C(=O)N1CCN(CCCOc2ccc(-c3noc(CC4CCCC4)n3)c(F)c2)CC1` [Example 182, 2-chloro-N-{(1R)-2-[4-(3-{4-[5-(cyclopentylmethyl)-1,2,4-oxadiazol-3-yl]-3-fluorophenoxy}propyl)-1-piperazinyl]-1-methyl-2-oxoethyl}benzamide] yielded a Ki of 2.78 nM. Next, `C[C@@H](NC(=O)c1ccco1)C(=O)N1CCCN(CCCOc2ccc(-c3noc(-c4cccs4)n3)c(F)c2)CC1` [Example 148, N-{(1R)-2-[4-(3-{3-fluoro-4-[5-(2-thienyl)-1,2,4-oxadiazol-3-yl]phenoxy}propyl)-1,4-diazepan-1-yl]-1-methyl-2-oxoethyl}-2-furamide]: 3.94 nM; `C[C@H](CCOc1ccc(C(=O)C2CC2)cc1)N1CCN(C(=O)[C@@H](C)N)CC1` [Example 62, (4-(((3R)-3-(4-((2R)-2-aminopropanoyl)-1-piperazinyl)butyl)oxy)phenyl)(cyclopropyl)methanone]: 1.46 nM; `CC(C)(C)[C@@H](N)C(=O)N1CCN(CCCOc2ccc(C(=O)C3CC3)cc2)CC1` [Example 66, (4-(3-(4-((2R)-2-amino-3,3-dimethylbutanoyl)-1-piperazinyl)propoxy)phenyl)(cyclopropyl)methanone]: 12.1 nM.

Compound `COc1ccc(OC)c(C(=O)N[C@H](C)C(=O)N2CCN(CCCOc3ccc(C(=O)C4CC4)cc3)CC2)c1` [Example 197, N-[(1R)-2-(4-{3-[4-(cyclopropylcarbonyl)phenoxy]propyl}-1-piperazinyl)-1-methyl-2-oxoethyl]-2,5-dimethoxybenzamide] came in with a Ki of 3.1 nM.

The values above are taken from patent publication US6559140B2 (Abbott Laboratories, priority 2000, dated 2003).
